Converted amounts (≈) assume the structure as drawn. The source made the active and inactive calls. No cut-off for these calls is given here. Non-standard residues stand in square brackets, D forms with d. Residues, ends and D or L forms follow the SMILES beside them. Groups on a side chain read outwards from the residue. *: point of attachment. Lys(α,ε-(ArgTrp)2) = N=C(N)NCCC[C@H](N)C(=O)N[C@@H](Cc1c[nH]c2ccccc12)C(=O)NCCCC[C@H](NC(=O)[C@H](Cc1c[nH]c2ccccc12)NC(=O)[C@@H](N)CCCNC(=N)N)C(=O)*; βAla = NCCC(=O)O
Tests used:
Acinetobacter baumannii [1] = test: Antibacterial activity against multidrug-resistant Acinetobacter baumannii ATCC BAA-747 assessed as growth inhibition measured over 400 generation period by standard broth microdilution assay relative to 50% growth inhibition after first day; type: functional
[2] = Ratio of compound hemolytic index to indolicidin hemolytic index for ratio of HD50 for sheep erythrocytes to IC50 for Escherichia coli D31
Staphylococcus aureus [3] = test: Antibacterial activity against multidrug-resistant Staphylococcus aureus ATCC BAA-44 assessed as growth inhibition measured over 400 generation period by standard broth microdilution assay; type: functional, organism-based
Escherichia coli [4] = test: Antibacterial activity against ampicillin and streptomycin-resistant Escherichia coli D31 assessed as growth inhibition after 18 hrs by standard broth microdilution assay; type: functional, organism-based; settings: D31, 18 h
Acinetobacter baumannii [5] = test: Antibacterial activity against multidrug-resistant Acinetobacter baumannii ATCC BAA-747 assessed as growth inhibition after 18 hrs by standard broth microdilution assay; type: functional, organism-based; settings: ATCC BAA-747, 18 h
[6] = Induction of hemolysis in sheep erythrocytes after 60 mins by spectrophotometer analysis; type: cell-based, Ovis aries, Erythrocyte; settings: read-out: HD50
[7] = Ratio of compound hemolytic index to indolicidin hemolytic index for ratio of HD50 for sheep erythrocytes to IC50 for Staphylococcus aureus ATCC BAA-44
Acinetobacter baumannii [8] = test: Antibacterial activity against multidrug-resistant Acinetobacter baumannii ATCC BAA-747 assessed as growth inhibition measured over 400 generation period by standard broth microdilution assay; type: functional, organism-based
Escherichia coli [9] = test: Antibacterial activity against ampicillin and streptomycin-resistant Escherichia coli D31 assessed as growth inhibition measured over 400 generation period by standard broth microdilution assay; type: functional, organism-based
Staphylococcus aureus [10] = test: Antibacterial activity against multidrug-resistant Staphylococcus aureus ATCC BAA-44 assessed as growth inhibition after 18 hrs by standard broth microdilution assay; type: functional, organism-based; settings: ATCC BAA-44, 18 h
Escherichia coli [11] = test: Antibacterial activity against ampicillin and streptomycin-resistant Escherichia coli D31 assessed as growth inhibition measured over 400 generation period by standard broth microdilution assay relative to 50% growth inhibition after first day; type: functional
Staphylococcus aureus [12] = test: Antibacterial activity against multidrug-resistant Staphylococcus aureus ATCC BAA-44 assessed as growth inhibition measured over 400 generation period by standard broth microdilution assay relative to 50% growth inhibition after first day; type: functional

Compound	IC50 (Escherichia coli [4])	IC50 (Acinetobacter baumannii [5])	HC50 at 1 h [6]	IC50 (Staphylococcus aureus [10])	further results
O=C(O)c1cn(C2CC2)c2cc(N3CCNCC3)c(F)cc2c1=O [CIPROFLOXACIN]					fold change (FC) (Acinetobacter baumannii [1]): 43
N=C(N)NCCC[C@H](N)C(=O)N[C@@H](Cc1c[nH]c2ccccc12)C(=O)NCCCC[C@H](NC(=O)[C@H](Cc1c[nH]c2ccccc12)NC(=O)[C@@H](N)CCCNC(=N)N)C(=O)NCCCC[C@H](NC(=O)[C@H](CCCCNC(=O)[C@H](Cc1c[nH]c2ccccc12)NC(=O)[C@@H](N)CCCNC(=N)N)NC(=O)[C@H](Cc1c[nH]c2ccccc12)NC(=O)[C@@H](N)CCCNC(=N)N)C(=O)NCCC(N)=O (H-RWK([Trp-Arg])K(Lys(α,ε-(ArgTrp)2))[βAla]-NH2)	3.9 µg/mL (≈ 2.12 µM)	42 µg/mL (≈ 22.8 µM)	1960 µg/mL	15 µg/mL (≈ 8.14 µM)	Ratio [2]: 10; growth inhibition (GI) (Staphylococcus aureus [3]): Active; Ratio [7]: 5; growth inhibition (GI) (Acinetobacter baumannii [8]): Active; growth inhibition (GI) (Escherichia coli [9]): Active
N=C(N)NCCC[C@H](N)C(=O)N[C@@H](Cc1ccc(O)cc1)C(=O)NCCCC[C@H](NC(=O)[C@H](Cc1ccc(O)cc1)NC(=O)[C@@H](N)CCCNC(=N)N)C(=O)NCCCC[C@H](NC(=O)[C@H](CCCCNC(=O)[C@H](Cc1ccc(O)cc1)NC(=O)[C@@H](N)CCCNC(=N)N)NC(=O)[C@H](Cc1ccc(O)cc1)NC(=O)[C@@H](N)CCCNC(=N)N)C(=O)NCCC(N)=O	12.6 µg/mL (≈ 7.2 µM)	193 µg/mL (≈ 110 µM)	2150 µg/mL	45.7 µg/mL (≈ 26.1 µM)	
CC[C@H](C)[C@H](NC(C)=O)C(=O)N[C@@H](CC(C)C)C(=O)N1CCC[C@H]1C(=O)N[C@@H](Cc1c[nH]c2ccccc12)C(=O)N[C@@H](CCCCN)C(=O)N[C@@H](Cc1c[nH]c2ccccc12)C(=O)N1CCC[C@H]1C(=O)N[C@@H](Cc1c[nH]c2ccccc12)C(=O)N[C@@H](Cc1c[nH]c2ccccc12)C(=O)N1CCC[C@H]1C(=O)N[C@@H](Cc1c[nH]c2ccccc12)C(=O)N[C@@H](CCCNC(=N)N)C(=O)N[C@@H](CCCNC(=N)N)C(N)=O					growth inhibition (GI) (Staphylococcus aureus [3]): Active; growth inhibition (GI) (Acinetobacter baumannii [8]): Active; growth inhibition (GI) (Escherichia coli [9]): Active
NC(=O)CCNC(=O)[C@H](CCCCNC(=O)[C@H](CCCCNC(=O)[C@H](Cc1c[nH]c2ccccc12)NC(=O)[C@@H](N)Cc1cnc[nH]1)NC(=O)[C@H](Cc1c[nH]c2ccccc12)NC(=O)[C@@H](N)Cc1cnc[nH]1)NC(=O)[C@H](CCCCNC(=O)[C@H](Cc1c[nH]c2ccccc12)NC(=O)[C@@H](N)Cc1cnc[nH]1)NC(=O)[C@H](Cc1c[nH]c2ccccc12)NC(=O)[C@@H](N)Cc1cnc[nH]1	30.6 µg/mL (≈ 17.3 µM)	82.7 µg/mL (≈ 46.8 µM)	1860 µg/mL	43.3 µg/mL (≈ 24.5 µM)	
N=C(N)NCCC[C@H](NC(=O)[C@H](Cc1c[nH]c2ccccc12)NC(=O)[C@H](CCCNC(=N)N)NC(=O)[C@H](Cc1c[nH]c2ccccc12)NC(=O)[C@H](CCCNC(=N)N)NC(=O)[C@H](Cc1c[nH]c2ccccc12)NC(=O)[C@@H](N)CCCNC(=N)N)C(=O)N[C@@H](Cc1c[nH]c2ccccc12)C(=O)O (H-RWRWRWRW-OH)					growth inhibition (GI) (Staphylococcus aureus [3]): Active; growth inhibition (GI) (Acinetobacter baumannii [8]): Active; growth inhibition (GI) (Escherichia coli [9]): Active
N=C(N)NCCC[C@H](NC(=O)[C@H](Cc1c[nH]c2ccccc12)NC(=O)[C@H](CCCNC(=N)N)NC(=O)[C@H](Cc1c[nH]c2ccccc12)NC(=O)[C@@H](N)CCCNC(=N)N)C(=O)N[C@@H](Cc1c[nH]c2ccccc12)C(=O)NCCCC[C@H](NC(=O)[C@H](Cc1c[nH]c2ccccc12)NC(=O)[C@H](CCCNC(=N)N)NC(=O)[C@H](Cc1c[nH]c2ccccc12)NC(=O)[C@H](CCCNC(=N)N)NC(=O)[C@H](Cc1c[nH]c2ccccc12)NC(=O)[C@@H](N)CCCNC(=N)N)C(=O)NCCCC[C@H](NC(=O)[C@H](CCCCNC(=O)[C@H](Cc1c[nH]c2ccccc12)NC(=O)[C@H](CCCNC(=N)N)NC(=O)[C@H](Cc1c[nH]c2ccccc12)NC(=O)[C@H](CCCNC(=N)N)NC(=O)[C@H](Cc1c[nH]c2ccccc12)NC(=O)[C@@H](N)CCCNC(=N)N)NC(=O)[C@H](Cc1c[nH]c2ccccc12)NC(=O)[C@H](CCCNC(=N)N)NC(=O)[C@H](Cc1c[nH]c2ccccc12)NC(=O)[C@H](CCCNC(=N)N)NC(=O)[C@H](Cc1c[nH]c2ccccc12)NC(=O)[C@@H](N)CCCNC(=N)N)C(=O)NCCC(N)=O (HELM PEPTIDE1{R.W.R.W.R.W.K.K.[bAla].[am]}|PEPTIDE2{R.W.R.W.R.W.K}|PEPTIDE3{R.W.R.W.R.W}|PEPTIDE4{R.W.R.W.R.W}$PEPTIDE1,PEPTIDE4,7:R3-6:R2|PEPTIDE1,PEPTIDE2,8:R3-7:R2|PEPTIDE2,PEPTIDE3,7:R3-6:R2$$$V2.0)	20.8 µg/mL (≈ 4.54 µM)		365 µg/mL	31.7 µg/mL (≈ 6.92 µM)	
NCCCC[C@H](N)C(=O)N[C@@H](Cc1ccccc1)C(=O)NCCCC[C@H](NC(=O)[C@H](Cc1ccccc1)NC(=O)[C@@H](N)CCCCN)C(=O)NCCCC[C@H](NC(=O)[C@H](CCCCNC(=O)[C@H](Cc1ccccc1)NC(=O)[C@@H](N)CCCCN)NC(=O)[C@H](Cc1ccccc1)NC(=O)[C@@H](N)CCCCN)C(=O)NCCC(N)=O	77 µg/mL (≈ 48.9 µM)	175 µg/mL (≈ 111 µM)	2500 µg/mL	145 µg/mL (≈ 92.1 µM)	
N=C(NCCCCCCNC(=N)NC(=N)Nc1ccc(Cl)cc1)NC(=N)Nc1ccc(Cl)cc1 [CHLORHEXIDINE]					fold change (FC) (Escherichia coli [11]): 5; fold change (FC) (Staphylococcus aureus [12]): 2.5
N=C(N)NCCC[C@H](N)C(=O)N[C@@H](Cc1ccccc1)C(=O)NCCCC[C@H](NC(=O)[C@H](Cc1ccccc1)NC(=O)[C@@H](N)CCCNC(=N)N)C(=O)NCCCC[C@H](NC(=O)[C@H](CCCCNC(=O)[C@H](Cc1ccccc1)NC(=O)[C@@H](N)CCCNC(=N)N)NC(=O)[C@H](Cc1ccccc1)NC(=O)[C@@H](N)CCCNC(=N)N)C(=O)NCCC(N)=O	30 µg/mL (≈ 17.8 µM)	160 µg/mL (≈ 94.9 µM)	2780 µg/mL	180 µg/mL (≈ 107 µM)	
CN[C@H](CC(C)C)C(=O)N[C@H]1C(=O)N[C@@H](CC(N)=O)C(=O)N[C@H]2C(=O)N[C@H]3C(=O)N[C@H](C(=O)N[C@H](C(=O)O)c4cc(O)cc(O)c4-c4cc3ccc4O)[C@H](O)c3ccc(c(Cl)c3)Oc3cc2cc(c3O[C@@H]2O[C@H](CO)[C@@H](O)[C@H](O)[C@H]2O[C@H]2C[C@](C)(N)[C@H](O)[C@H](C)O2)Oc2ccc(cc2Cl)[C@H]1O [VANCOMYCIN]					fold change (FC) (Staphylococcus aureus [12]): 2.5
NCCCC[C@H](N)C(=O)N[C@@H](Cc1c[nH]c2ccccc12)C(=O)NCCCC[C@H](NC(=O)[C@H](Cc1c[nH]c2ccccc12)NC(=O)[C@@H](N)CCCCN)C(=O)NCCCC[C@H](NC(=O)[C@H](CCCCNC(=O)[C@H](Cc1c[nH]c2ccccc12)NC(=O)[C@@H](N)CCCCN)NC(=O)[C@H](Cc1c[nH]c2ccccc12)NC(=O)[C@@H](N)CCCCN)C(=O)NCCC(N)=O	30.6 µg/mL (≈ 17.7 µM)	52 µg/mL (≈ 30.1 µM)	1460 µg/mL	23.3 µg/mL (≈ 13.5 µM)	
N=C(N)NCCC[C@H](NC(=O)[C@H](Cc1c[nH]c2ccccc12)NC(=O)[C@@H](N)CCCNC(=N)N)C(=O)N[C@@H](Cc1c[nH]c2ccccc12)C(=O)NCCCC[C@H](NC(=O)[C@H](Cc1c[nH]c2ccccc12)NC(=O)[C@H](CCCNC(=N)N)NC(=O)[C@H](Cc1c[nH]c2ccccc12)NC(=O)[C@@H](N)CCCNC(=N)N)C(=O)NCCCC[C@H](NC(=O)[C@H](CCCCNC(=O)[C@H](Cc1c[nH]c2ccccc12)NC(=O)[C@H](CCCNC(=N)N)NC(=O)[C@H](Cc1c[nH]c2ccccc12)NC(=O)[C@@H](N)CCCNC(=N)N)NC(=O)[C@H](Cc1c[nH]c2ccccc12)NC(=O)[C@H](CCCNC(=N)N)NC(=O)[C@H](Cc1c[nH]c2ccccc12)NC(=O)[C@@H](N)CCCNC(=N)N)C(=O)NCCC(N)=O (HELM PEPTIDE1{R.W.R.W.K.K.[bAla].[am]}|PEPTIDE2{R.W.R.W}|PEPTIDE3{R.W.R.W.K}|PEPTIDE4{R.W.R.W}$PEPTIDE1,PEPTIDE2,5:R3-4:R2|PEPTIDE3,PEPTIDE4,5:R3-4:R2|PEPTIDE1,PEPTIDE3,6:R3-5:R2$$$V2.0)	16.4 µg/mL (≈ 5.11 µM)		131 µg/mL	23.6 µg/mL (≈ 7.35 µM)	
NCCCC[C@H](N)C(=O)N[C@@H](Cc1ccc(O)cc1)C(=O)NCCCC[C@H](NC(=O)[C@H](Cc1ccc(O)cc1)NC(=O)[C@@H](N)CCCCN)C(=O)NCCCC[C@H](NC(=O)[C@H](CCCCNC(=O)[C@H](Cc1ccc(O)cc1)NC(=O)[C@@H](N)CCCCN)NC(=O)[C@H](Cc1ccc(O)cc1)NC(=O)[C@@H](N)CCCCN)C(=O)NCCC(N)=O	84.4 µg/mL (≈ 51.5 µM)	360 µg/mL (≈ 220 µM)	3740 µg/mL	240 µg/mL (≈ 147 µM)	
GENTAMICIN					fold change (FC) (Escherichia coli [11]): 13; fold change (FC) (Acinetobacter baumannii [1]): 8
